≈ marks a conversion by molar mass, not a printed value. Calls of active or inactive are those of the source. No cut-off for these calls is given here.
Assays:
Relaxin receptor 1 = target: T1, Relaxin receptor 1 (Homo sapiens, UniProt Q9HBX9); type: functional, cell-based, HEK293
T1 sequence (Q9HBX9 whole entry): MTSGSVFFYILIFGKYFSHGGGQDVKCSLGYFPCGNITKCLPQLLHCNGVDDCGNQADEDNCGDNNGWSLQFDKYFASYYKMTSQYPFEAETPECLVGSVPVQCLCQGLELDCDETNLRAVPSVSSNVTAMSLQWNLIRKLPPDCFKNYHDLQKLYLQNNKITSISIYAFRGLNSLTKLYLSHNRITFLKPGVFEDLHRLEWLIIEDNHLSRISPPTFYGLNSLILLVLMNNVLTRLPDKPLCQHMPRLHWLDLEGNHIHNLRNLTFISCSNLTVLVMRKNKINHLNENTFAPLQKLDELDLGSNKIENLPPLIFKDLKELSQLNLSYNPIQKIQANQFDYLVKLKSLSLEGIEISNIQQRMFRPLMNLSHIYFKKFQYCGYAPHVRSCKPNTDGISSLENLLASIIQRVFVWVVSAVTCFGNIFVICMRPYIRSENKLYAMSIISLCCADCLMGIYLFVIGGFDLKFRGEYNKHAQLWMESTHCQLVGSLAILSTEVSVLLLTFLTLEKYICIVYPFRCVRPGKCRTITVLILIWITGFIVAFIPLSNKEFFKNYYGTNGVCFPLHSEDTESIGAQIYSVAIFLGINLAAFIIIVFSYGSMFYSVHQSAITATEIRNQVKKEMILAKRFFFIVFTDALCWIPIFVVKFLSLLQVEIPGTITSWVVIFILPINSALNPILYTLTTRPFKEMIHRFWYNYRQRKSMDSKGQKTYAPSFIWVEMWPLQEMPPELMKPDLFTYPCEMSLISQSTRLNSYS

[1] = target: T2, Relaxin receptor 1 (Homo sapiens) (UniProt Q9HBX9); type: functional, cell-based; settings: HEK293
T2 sequence (whole entry): T1 sequence (Q9HBX9 whole entry)

[2] = Aqueous kinetic solubility of the compound in PBS by shake-flask method; type: physicochemical; settings: for solubility kinetic: PBS, read-out: Kinetic_solubility
[3] = rat, microsomes
Description: Half life in rat liver microsomes

[4] = Metabolic stability in mouse liver microsomes assessed as parent compound remaining after 60 mins; type: ADME, microsome; settings: read-out: Stability
HEK293 = assay: Cytotoxicity against HEK293 cells assessed as reduction in cell viability by measuring ATP level by ATPlite assay; type: cell-based; settings: Homo sapiens

| Compound | EC50 (Relaxin receptor 1; read-out: EC50) [µM] | Efficacy [1] | other results |
| --- | --- | --- | --- |
| O=C(Nc1cccc([N+](=O)[O-])c1)c1ccccc1NC(=O)C1CCCCC1 | 5.93 | 93% | – |
| CC(C)Oc1ccccc1C(=O)Nc1ccccc1C(=O)Nc1cccc(C(F)(F)F)c1 | 0.471 | 99% | – |
| O=C(Nc1cccc(S(=O)(=O)C(F)(F)F)c1)c1ccccc1NC(=O)C1CCCCC1 | 1.06 | 87% | – |
| CCOc1ccccc1C(=O)Nc1ncccc1C(=O)Nc1cccc(S(=O)(=O)C(F)(F)F)c1 | 1.67 | 98% | solubility kinetic [2]: < 1000 µM; t1/2 [3]: 19.85 min |
| COc1ccccc1C(=O)Nc1ccccc1C(=O)N(C)c1cccc(C(F)(F)F)c1 | 29.7 | 77% | – |
| O=C(Nc1cccc(C(F)(F)F)c1)c1ccccc1NC(=O)c1ccccc1OC(F)(F)F | 1.18 | 96% | – |
| COCCNc1ccccc1C(=O)Nc1cccc(C(F)(F)F)c1 | 59.3 | 63% | – |
| CCOc1ccccc1C(=O)Nc1sccc1C(=O)Nc1cccc(S(=O)(=O)C(F)(F)F)c1 | 2.36 | 95% | – |
| O=C(Cc1ccccc1)Nc1ccccc1C(=O)Nc1cccc(C(F)(F)F)c1 | 8.38 | 86% | – |
| O=C(Nc1ccc(C(F)(F)F)cc1)c1ccccc1NC(=O)C1CCCCC1 | 94 | 46% | – |
| CC(C)(C)c1cccc(NC(=O)c2ccccc2NC(=O)C2CCCCC2)c1 | 2.66 | 70% | – |
| O=C(Nc1ccccc1)c1ccccc1NC(=O)C1CCCCC1 | 94 | 57% | – |
| O=C(Nc1ccccc1C(=O)Nc1cccc(C(F)(F)F)c1)c1ccccc1 | 1.32 | 64% | – |
| O=C(Nc1cccc(S(=O)(=O)C(F)(F)F)c1)c1ccccc1NC(=O)c1ccccc1OCC(F)(F)F | 0.067 | 97% | t1/2 [3]: > 30 min |
| CCC(CC)C(=O)Nc1ccccc1C(=O)Nc1cccc(C(F)(F)F)c1 | 5.29 | 59% | – |
| COc1ccccc1C(=O)N(C)c1ccccc1C(=O)Nc1cccc(C(F)(F)F)c1 | – | inactive | EC50 (Relaxin receptor 1; hek293): Not Active |
| CCOc1ccccc1S(=O)(=O)Nc1ccccc1C(=O)Nc1cccc(S(=O)(=O)C(F)(F)F)c1 | – | inactive | EC50 (Relaxin receptor 1; hek293): Not Active |
| O=C(Nc1cccc(C(F)(F)F)c1)c1ccccc1NC(=O)C1CCCC1 | 2.36 | 88% | – |
| O=C(Nc1ccccc1C(=O)Nc1ccccc1C(=O)NCc1ccco1)c1ccco1 | – | – | Kinetic_solubility ([2]; buffer): 3.7 µM; remaining at 1 h [4]: 2% |
| COc1cccc(C(=O)Nc2ccccc2C(=O)Nc2cccc(C(F)(F)F)c2)c1 | 1.88 | 94% | – |
| COc1ccccc1C(=O)Nc1ccccc1C(=O)Nc1cccc(C(F)(F)F)c1 | 0.334 | 99% | – |
| CCOc1ccccc1C(=O)Nc1ccncc1C(=O)Nc1cccc(S(=O)(=O)C(F)(F)F)c1 | 0.747 | 97% | t1/2 [3]: > 30 min |
| O=C(Nc1cccc(C(F)(F)F)c1)c1ccccc1NC(=O)C1CCC1 | 2.97 | 75% | – |
| CN(C)CCOc1ccccc1C(=O)Nc1ccccc1C(=O)Nc1cccc(C(F)(F)F)c1 | 3.74 | 92% | – |
| O=C(Nc1cccc(C(F)(F)F)c1)c1ccccc1NC(=O)C1CCCCC1 | 1.88 | 92% | remaining at 1 h [4]: 70% |
| CCOc1ccccc1C(=O)Nc1cccnc1C(=O)Nc1cccc(S(=O)(=O)C(F)(F)F)c1 | 4.71 | 73% | solubility kinetic [2]: < 1000 µM; t1/2 [3]: > 30 min |
| O=C(Nc1ccccc1C(=O)Nc1cccc(C(F)(F)F)c1)c1cccnc1 | 5.93 | 95% | – |
| O=C(Nc1cccc(Cl)c1)c1ccccc1NC(=O)C1CCCCC1 | 3.34 | 89% | – |

| Compound | EC50 (Relaxin receptor 1; read-out: EC50) [µM] | Efficacy [1] | other results |
| --- | --- | --- | --- |
| COc1cccc(OC)c1C(=O)Nc1ccccc1C(=O)Nc1cccc(C(F)(F)F)c1 | 7.47 | 42% | – |
| COCCOc1ccccc1C(=O)Nc1ccccc1C(=O)Nc1cccc(C(F)(F)F)c1 | 0.747 | 98% | – |
| CSc1cccc(NC(=O)c2ccccc2NC(=O)C2CCCCC2)c1 | 5.29 | 84% | – |
| O=C(Nc1cccc(-c2ccccc2)c1)c1ccccc1NC(=O)C1CCCCC1 | – | inactive | EC50 (Relaxin receptor 1; hek293): Not Active |
| Cc1ccc(NC(=O)c2ccccc2NC(=O)C2CCCCC2)cc1 | 187 | 32% | – |
| Cc1ccccc1NC(=O)c1ccccc1NC(=O)C1CCCCC1 | – | inactive | EC50 (Relaxin receptor 1; hek293): Not Active |
| COc1ccc(C(=O)Nc2ccccc2C(=O)Nc2cccc(C(F)(F)F)c2)cc1 | 9.4 | 71% | – |
| CCCCOc1ccccc1C(=O)Nc1ccccc1C(=O)Nc1cccc(S(=O)(=O)C(F)(F)F)c1 | 0.047 | 98% | solubility kinetic [2]: 5.3 µM (≈ 2.76 µg/mL); t1/2 [3]: 19.5 min |
| O=C(Nc1cccc(-c2cccc(C(F)(F)F)c2)c1)c1ccccc1NC(=O)C1CCCCC1 | – | inactive | EC50 (Relaxin receptor 1; hek293): Not Active |
| O=C(Nc1cccc(C(F)(F)F)c1)c1ccccc1NC(=O)C1CCCCCC1 | 2.11 | 75% | – |
| O=C(Nc1cccc(C(F)(F)F)c1)c1ccccc1NC(=O)C1CC1 | 8.38 | 79% | – |
| COc1ccccc1C(=O)Nc1ccccc1C(=O)Nc1cccc(S(=O)(=O)C(F)(F)F)c1 | 0.188 | 99% | t1/2 [3]: > 30 min |
| O=C(NCc1cccc(C(F)(F)F)c1)c1ccccc1NC(=O)C1CCCCC1 | – | inactive | EC50 (Relaxin receptor 1; hek293): Not Active |
| CCOc1ccccc1C(=O)Nc1ccccc1C(=O)Nc1cccc(S(=O)(=O)C(F)(F)F)c1 | – | – | t1/2 [3]: > 30 min |
| O=C(NCc1ccco1)c1ccccc1NC(=O)c1ccccc1NC(=O)C1CCCCC1 | 9.4 | 45% | – |
| O=C(Nc1ccccc1C(=O)Nc1cccc(C(F)(F)F)c1)c1ccccc1Cl | 3.74 | 92% | – |
| CCOc1ccccc1C(=O)Nc1ccccc1C(=O)Nc1cccc(C(F)(F)F)c1 | 0.265 | 94% | – |
| CCCCC(=O)Nc1ccccc1C(=O)Nc1cccc(C(F)(F)F)c1 | 5.29 | 94% | – |
| CCCOc1ccccc1C(=O)Nc1ccccc1C(=O)Nc1cccc(S(=O)(=O)C(F)(F)F)c1 | 0.052 | 98% | solubility kinetic [2]: 17 µM (≈ 8.61 µg/mL); EC50 (HEK293): 9.4 µM; t1/2 [3]: 26.8 min |
| Cc1ccccc1C(=O)Nc1ccccc1C(=O)Nc1cccc(C(F)(F)F)c1 | 4.2 | 90% | – |
| COc1ccccc1C(=O)Nc1cccc(C(=O)Nc2cccc(C(F)(F)F)c2)c1 | – | inactive | EC50 (Relaxin receptor 1; hek293): Not Active |
| O=C(Nc1cccc(-c2ccccc2C(F)(F)F)c1)c1ccccc1NC(=O)C1CCCCC1 | 2.65 | 74% | – |
| O=C(Nc1cccc(SC(F)(F)F)c1)c1ccccc1NC(=O)C1CCCCC1 | 1.88 | 90% | – |
| COc1cccc(NC(=O)c2ccccc2NC(=O)C2CCCCC2)c1 | 37.4 | 74% | – |
| CCOc1ccccc1C(=O)Nc1cnccc1C(=O)Nc1cccc(S(=O)(=O)C(F)(F)F)c1 | 2.97 | 99% | solubility kinetic [2]: < 1000 µM |
| O=C(Nc1cccc(F)c1)c1ccccc1NC(=O)C1CCCCC1 | 13.3 | 81% | – |
| O=C(Nc1cccc(Br)c1)c1ccccc1NC(=O)C1CCCCC1 | 2.65 | 91% | – |
